Measurements as given in patent publication US20240115729A1, “COMPOSITIONS AND METHODS FOR TARGETED ANTIFIBROTIC THERAPY IN CHRONIC PANCREATITIS” (University of Virginia Patent Foundation, priority 2021, published 2024).
Where “and” joins values, the source holds several entries; their conditions need not be identical. Equal values may be shown once.

Experiments:
[1] = test system: cellular components in the CP microenvironment; test: Cellular selectivity of phage clones: one-way ANOVA and Tukey-Kramer comparison of MCC of all cell markers; format: in vivo, mouse
Description: (§1) Immunofluorescence (IF). Post ex vivo imaging, mouse pancreata were submerged in Neg-50 Frozen Section Medium (Thermo Scientific, Waltham, Massachusetts, United States of America) and snap-frozen over liquid nitrogen vapor. The embedded tissues were cut into 5 μm sections using a cryostat (Leica Microsystems Inc., Buffalo Grove, Illinois, United States of America) for subsequent imaging with ZEISS LSM-880 Confocal Laser Scanning Microscope (Carl Zeiss Meditec, Inc., Jena, Germany) at the Advanced Microscopy Facility at the University of Virginia. Cell types of interest in the pancreatitis microenvironment were identified by immunohistochemistry using the following antibodies: rat anti-mouse CD31 at 1:200 dilution (endothelial markers; BD Biosciences, San Jose, California, United States of America), rat anti-mouse CD206 at 1:1000 dilution (M2 macrophage markers; Bio-Rad, Hercules, California, United States of America), rabbit anti-mouse cytokeratin 7 at 1:3000 dilution (CK-7, epithelial markers; Abcam, Cambridge, Massachusetts, United States of America), rabbit anti-mouse collagen IIIa at 1:200 dilution (ECM markers; Abcam, Cambridge, Massachusetts, United States of America), goat anti-mouse carboxypeptidase A1 at 1:200 dilution (CPA1, acini markers; R&D Systems, Inc., Minneapolis, Minnesota, United States of America), rat anti-mouse F4/80 at 1:500 (macrophage markers; Bio-Rad, Hercules, California, United States of America), and FITC-conjugated, mouse anti-mouse α-SMA at 1:200 dilution (MilliporeSigma, St. Louis, Missouri, United States of America). ALEXA FLUOR® 488 (Abcam, Cambridge, Massachusetts, United States of America) antibodies from appropriate species, including donkey anti-goat, donkey anti-rat, donkey anti-rabbit at 1:500 dilution, were used as secondary antibodies to locate the primary antibodies. IF-stained pancreatic sections were mounted with PROLONG™ Gold Antifade Mountant with DAPI (Thermo Fisher Scientific Inc, Waltham, Massachusetts, United States of America, United States of America) for nucleus visualization. IF images were taken on Ziess LSM 880 Confocal Microscope (ZIESS, Oberkochen, Germany) at the Advanced Microscopy Facility at the University of Virginia.
Statistical analysis. Statistical analysis of the data was performed by student t-test, one-way analysis of variance (ANOVA), and Tukey-Kramer test. All data presented are expressed as mean+standard error of at least three independent measurements. For all comparisons, p-values<0.05 were considered significant.
(§2) To identify the cell types that the CP targeting clones were binding, immunofluorescent analysis was performed on common cellular components in the CP microenvironment in the inflamed pancreas sections following in vivo validation of individual clones (FIG. 7). Mander's correlation coefficient (MCC) analysis was performed to determine colocalization of the targeting phage to the cell markers.

[2] = test system: caerulein-induced CP mice (inflamed pancreas) versus healthy mice; test: In vivo validation of individual phage clones: ex vivo IVIS fluorescence of organs after co-injection of targeting phage (VT680) and wild type M13Ke phage (VT750); parameters: species or system mouse (C57BL/6J); conditions: for CP-to-Healthy Ratio (fold change of specificity ratio): Pancreas; for specificity for CP over healthy pancreas: individual clones from Groups 2 and 3
Experimental: C57BL/6 J mice (6-12 week-old, female) were used for the in vivo phage screening. For chronic pancreatitis, caerulein (Bachem, Torrance, California, United States of America) was dissolved in sterile saline and administrated to mice twice a day, 8 hours apart for 14 consecutive days, at a concentration of 250 μg/kg body weight via intraperitoneal injection (Halbrook et al., 2017), as shown in FIG. 1A. During the 14-day course, intraperitoneal injections of 100 μg/kg buprenorphine were given every 3 days to minimize the induced pain. For healthy controls, c57BL/6 J mice were injected intraperitoneally with an equal volume of sterile saline following the same schedule as in the chronic pancreatitis models. […] Picrosirius red (Polysciences, Inc., Warrington, Pennsylvania, United States of America) was used to visualize collagen in paraffin-embedded pancreas sections (FIG. 1B).
Specificity of phage clones. After PHASTpep analysis and candidate clone selections, 18 candidate clones were grouped (4-5 clones per group, 4 groups total) based on sequence similarity using GibbsCluster Server 2.0 (Andreatta et al., 2017). by the Technical University of Denmark (FIG. 2). […] For each group, the fluorescently labeled candidate and WT phage were mixed and co-injected in CP and healthy mice (n=5) Phage accumulation was determined by measuring the ex vivo fluorescent intensity of the pancreas at 20 hours post-injection using the Fluorescent Molecular Tomography (FMT, PerkinElmer, Waltham, Massachusetts, United States of America) using the excitation and emission wavelength at 675 nm/720 nm for VT680 and 745 nm/800 nm for VT750. To account for variations of fluorescent labeling efficiency, the raw readouts of VT680 and VT750 were normalized to the dye-per-phage ratio (see Table 3 below).
The specificity ratio was calculated as % ID/g of the normalized VT680 divided by the % ID/g of the normalized VT750 (see Equation (1)). Quantifications are included in Table 4.
A similar procedure was applied to determine the specificity of individual phage clones in Groups 2 and 3. Candidate clones were labeled with VivioTag 680 (VT680, PerkinElmer, Waltham, MA) to match the detectable wavelength of the IVIS Spectrum Series (Perkin Elmer, Waltham, Massachusetts, United States of America). Fluorescent intensity was measured at 20 hours post-injection of candidate phage (VT680) and WT phage (VT750). Fold change of specificity ratio was calculated as the specificity ratio of CP mice divided by the specificity ratio of the healthy mouse (see Table 5).

CK7 (epithelium) = test: Immunofluorescence colocalization (MCC) of VT680-labeled phage with cell marker in CP pancreas; format: in vivo, mouse; conditions: CP pancreas sections
Description: as §1, §2

[3] = test system: αSMA+ cells (activated PSC); test: as above; format: in vivo, mouse; conditions: CP pancreas sections
Description: as §1, §2

[4] = test system: CPA-1+ cells (acinar cells); test: as above; format: in vivo, mouse; conditions: CP pancreas sections
Description: as §1, §2

CD31 (endothelium) = test: as above; format: in vivo, mouse; conditions: CP pancreas sections
Description: as §1, §2

[5] = test system: collagen IIIa+ cells (ECM); test: as above; format: in vivo, mouse; conditions: Col IIIa; CP pancreas sections
Description: as §1, §2

[6] = test system: F4/80+ cells (macrophages); test: as above; format: in vivo, mouse; conditions: CP pancreas sections
Description: as §1, §2

[7] = statistically significant selectivity for a single cellular component in CP

Substance	Cell type the phage clone shows specificity to ([1]; CP microenvironment)	Marker the phage clone shows specificity to ([1]; CP microenvironment)	Colocalized Markers (p < 0.05) [1, 7]	Corresponding Cellular Components [1, 7]	Radiant efficiency Targeting:M13Ke ([2]; CP mouse, liver)	Radiant efficiency Targeting:M13Ke ([2]; CP mouse, pancreas)	Radiant efficiency Targeting:M13Ke ([2]; CP mouse, spleen)	CP-to-Healthy Ratio ([2]; Liver)	CP-to-Healthy Ratio (fold change of specificity ratio) [2]	CP-to-Healthy Ratio ([2]; Spleen)	Radiant efficiency Targeting:M13Ke ([2]; healthy mouse, liver)	Radiant efficiency Targeting:M13Ke ([2]; healthy mouse, pancreas)	Radiant efficiency Targeting:M13Ke ([2]; healthy mouse, spleen)	specificity for CP over healthy pancreas [2]	Mean Manders' Correlation Coefficient (MCC), fraction of phage overlapping cell marker (CK7 (epithelium))	Mean Manders' Correlation Coefficient (MCC), fraction of phage overlapping cell marker [3]	Mean Manders' Correlation Coefficient (MCC), fraction of phage overlapping cell marker [4]	Mean Manders' Correlation Coefficient (MCC), fraction of phage overlapping cell marker (CD31 (endothelium))	Mean Manders' Correlation Coefficient (MCC), fraction of phage overlapping cell marker [5]	Mean Manders' Correlation Coefficient (MCC), fraction of phage overlapping cell marker [6]
MNSIAIP (displayed on phage)	Acinar cells	CPA1^+	CPA-1	Acinar cells	0.61	9.81	3.61	1.144	1.945	0.829	0.53	5.04	4.36	increased specificity for CP over healthy pancreas	0.05	0.07	0.633±0.179 and 0.63	0.24	0.34	0.37
SANITNL (displayed on phage) [7-mer peptide, candidate phage clone selected by replicability between libraries]	–	–	–	–	0.74	4.02	4.60	1.287	0.943	1.518	0.58	4.27	3.03	–	–	–	–	–	–	–
SLPLGPM (displayed on phage) [7-mer peptide, candidate phage clone from Groups 2 and 3]	–	–	–	–	0.64	6.42	3.49	0.921	1.286	1.215	0.69	5.00	2.87	increased specificity for CP over healthy pancreas	0.06	0.15	0.35	0.25	0.23	0.49
HPYSPLR [7-mer peptide, candidate phage clone from Groups 2 and 3]	–	–	–	–	0.59	6.42	3.10	0.744	1.544	1.138	0.80	4.16	2.73	increased specificity for CP over healthy pancreas	0.08	0.13	0.25	0.35	0.27	0.41
HSGLNKQ (displayed on phage) [7-mer peptide, candidate phage clone selected by motif clustering analysis]	–	–	–	–	0.63	6.07	3.42	1.254	0.611	1.157	0.50	9.93	2.96	–	–	–	–	–	–	–
